Values after ≈ are worked out from the molar mass of the structure shown.
Legend:
Assay in all cases: In vitro MIC, 2010 surveillance isolates
K. pneumoniae ESBL− = type: cell-based, Klebsiella pneumoniae
Enterobacter spp = type: cell-based
K. pneumoniae ESBL+ = type: cell-based, Klebsiella pneumoniae
E. cloacae CeftazR = type: cell-based
K. oxytoca = type: cell-based
A. baumanii = type: cell-based
Acinetobacter spp = type: cell-based
E. coli ESBL− = type: cell-based, Escherichia coli
E. coli ESBL+ = type: cell-based, Escherichia coli
E. cloacae CeftazS = type: cell-based; design: MIC90: unit: µg/mL

**Q.** With `C[C@@H](O)[C@H]1C(=O)N2C(C(=O)O)=C(SCCN=CN)C[C@H]12` [Imipenem] as the compound, how does the “% R (resistance)” value (K. pneumoniae ESBL−; Asia/Pac, Eucast breakpoints) read?
**A.** 0%

**Q.** And the MIC90 (K. pneumoniae ESBL−; Asia/Pac, N=189)?
**A.** 0.5 µg/mL (≈ 1.67 µM)

**Q.** And the “% R (resistance)” value (K. pneumoniae ESBL−; Europe, Eucast breakpoints)?
**A.** 0%

**Q.** And the MIC90 (K. pneumoniae ESBL−; Europe, N=361)?
**A.** 0.25 µg/mL (≈ 0.835 µM)

**Q.** What about the “% R (resistance)” value (K. pneumoniae ESBL−; L. Amer, CLSI breakpoints) of the same compound?
**A.** 0%

**Q.** What about the MIC90 (K. pneumoniae ESBL−; L. Amer, N=160) of the same compound?
**A.** 0.25 µg/mL (≈ 0.835 µM)

**Q.** What about the “% R (resistance)” value (K. pneumoniae ESBL−; N America, CLSI breakpoints) of the same compound?
**A.** 0%

**Q.** And the MIC90 (K. pneumoniae ESBL−; N America, N=671)?
**A.** 0.25 µg/mL (≈ 0.835 µM)

**Q.** And the “% R (resistance)” value (Enterobacter spp; Asia/Pac, Eucast breakpoints)?
**A.** 0%

**Q.** What about the MIC90 (Enterobacter spp; Asia/Pac, N=52) of the same compound?
**A.** 1 µg/mL (≈ 3.34 µM)

**Q.** What about the “% R (resistance)” value (Enterobacter spp; Europe, Eucast breakpoints) of the same compound?
**A.** 0%

**Q.** What about the MIC90 (Enterobacter spp; Europe, N=82) of the same compound?
**A.** 1 µg/mL (≈ 3.34 µM)

**Q.** What about the “% R (resistance)” value (Enterobacter spp; L. Amer, CLSI breakpoints) of the same compound?
**A.** 0%

**Q.** And the MIC90 (Enterobacter spp; L. Amer, N=42)?
**A.** 1 µg/mL (≈ 3.34 µM)

**Q.** What about the “% R (resistance)” value (Enterobacter spp; N America, CLSI breakpoints) of the same compound?
**A.** 1 (1) %

**Q.** And the MIC90 (Enterobacter spp; N America, N=101)?
**A.** 1 (1)

**Q.** And the “% R (resistance)” value (K. pneumoniae ESBL+; Asia/Pac, Eucast breakpoints)?
**A.** 10.5%

**Q.** What about the MIC90 (K. pneumoniae ESBL+; Asia/Pac, N=124) of the same compound?
**A.** > 8 µg/mL

**Q.** And the “% R (resistance)” value (K. pneumoniae ESBL+; Europe, Eucast breakpoints)?
**A.** 7.9%

**Q.** What about the MIC90 (K. pneumoniae ESBL+; Europe, N=151) of the same compound?
**A.** 2 µg/mL (≈ 6.68 µM)

**Q.** What about the “% R (resistance)” value (K. pneumoniae ESBL+; L. Amer, CLSI breakpoints) of the same compound?
**A.** 18.7%

**Q.** What about the MIC90 (K. pneumoniae ESBL+; L. Amer, N=209) of the same compound?
**A.** > 8 µg/mL

**Q.** And the “% R (resistance)” value (K. pneumoniae ESBL+; N America, CLSI breakpoints)?
**A.** 26.9%

**Q.** What about the MIC90 (K. pneumoniae ESBL+; N America, N=108) of the same compound?
**A.** > 8 µg/mL

**Q.** And the “% R (resistance)” value (E. cloacae CeftazR; Asia/Pac, Eucast breakpoints)?
**A.** 0%

**Q.** What about the MIC90 (E. cloacae CeftazR; Asia/Pac, N=63) of the same compound?
**A.** 1 µg/mL (≈ 3.34 µM)

**Q.** And the “% R (resistance)” value (E. cloacae CeftazR; Europe, Eucast breakpoints)?
**A.** 1.4%

**Q.** What about the MIC90 (E. cloacae CeftazR; Europe, N=72) of the same compound?
**A.** 1 µg/mL (≈ 3.34 µM)

**Q.** What about the “% R (resistance)” value (E. cloacae CeftazR; L. Amer, CLSI breakpoints) of the same compound?
**A.** 0%

**Q.** What about the MIC90 (E. cloacae CeftazR; L. Amer, N=42) of the same compound?
**A.** 0.5 µg/mL (≈ 1.67 µM)

**Q.** And the “% R (resistance)” value (E. cloacae CeftazR; N America, CLSI breakpoints)?
**A.** 11.7%

**Q.** And the MIC90 (E. cloacae CeftazR; N America, N=77)?
**A.** 8 µg/mL (≈ 26.7 µM)

**Q.** What about the “% R (resistance)” value (K. oxytoca; Asia/Pac, Eucast breakpoints) of the same compound?
**A.** 0%

**Q.** And the MIC90 (K. oxytoca; Asia/Pac, N=17)?
**A.** 0.5 µg/mL (≈ 1.67 µM)

**Q.** What about the “% R (resistance)” value (K. oxytoca; Europe, Eucast breakpoints) of the same compound?
**A.** 0%

**Q.** And the MIC90 (K. oxytoca; Europe, N=158)?
**A.** 0.25 µg/mL (≈ 0.835 µM)

**Q.** And the “% R (resistance)” value (K. oxytoca; L. Amer, CLSI breakpoints)?
**A.** 4%

**Q.** And the MIC90 (K. oxytoca; L. Amer, N=25)?
**A.** 0.25 µg/mL (≈ 0.835 µM)

**Q.** What about the “% R (resistance)” value (K. oxytoca; N America, CLSI breakpoints) of the same compound?
**A.** 0.6%

**Q.** And the MIC90 (K. oxytoca; N America, N=177)?
**A.** 0.25 µg/mL (≈ 0.835 µM)

**Q.** What about the “% R (resistance)” value (A. baumanii; Asia/Pac, Eucast breakpoints) of the same compound?
**A.** 72.4%

**Q.** What about the MIC90 (A. baumanii; Asia/Pac, N=275) of the same compound?
**A.** > 8 µg/mL

**Q.** And the “% R (resistance)” value (A. baumanii; Europe, Eucast breakpoints)?
**A.** 66.2%

**Q.** And the MIC90 (A. baumanii; Europe, N=145)?
**A.** > 8 µg/mL

**Q.** What about the “% R (resistance)” value (A. baumanii; L. Amer, CLSI breakpoints) of the same compound?
**A.** 75.6%

**Q.** What about the MIC90 (A. baumanii; L. Amer, N=275) of the same compound?
**A.** > 8 µg/mL

**Q.** What about the “% R (resistance)” value (A. baumanii; N America, CLSI breakpoints) of the same compound?
**A.** 53.2%

**Q.** And the MIC90 (A. baumanii; N America, N=154)?
**A.** > 8 µg/mL

**Q.** And the “% R (resistance)” value (Acinetobacter spp; Asia/Pac, Eucast breakpoints)?
**A.** 11.1%

**Q.** And the “% R (resistance)” value (Acinetobacter spp; Europe, Eucast breakpoints)?
**A.** 30.2%

**Q.** What about the MIC90 (Acinetobacter spp; Europe, N=43) of the same compound?
**A.** > 8 µg/mL

**Q.** What about the “% R (resistance)” value (Acinetobacter spp; L. Amer, CLSI breakpoints) of the same compound?
**A.** 44.4%

**Q.** What about the “% R (resistance)” value (Acinetobacter spp; N America, CLSI breakpoints) of the same compound?
**A.** 4.8%

**Q.** What about the MIC90 (Acinetobacter spp; N America, N=42) of the same compound?
**A.** 8 µg/mL (≈ 26.7 µM)

**Q.** What about the “% R (resistance)” value (E. coli ESBL−; Asia/Pac, Eucast breakpoints) of the same compound?
**A.** 0%

**Q.** What about the MIC90 (E. coli ESBL−; Asia/Pac, N=282) of the same compound?
**A.** ≤ 0.12 µg/mL

**Q.** What about the “% R (resistance)” value (E. coli ESBL−; Europe, Eucast breakpoints) of the same compound?
**A.** 0%

**Q.** What about the MIC90 (E. coli ESBL−; Europe, N=1533) of the same compound?
**A.** ≤ 0.12 µg/mL

**Q.** And the “% R (resistance)” value (E. coli ESBL−; L. Amer, CLSI breakpoints)?
**A.** 0%

**Q.** And the MIC90 (E. coli ESBL−; L. Amer, N=389)?
**A.** ≤ 0.12 µg/mL

**Q.** And the “% R (resistance)” value (E. coli ESBL−; N America, CLSI breakpoints)?
**A.** 0%

**Q.** What about the MIC90 (E. coli ESBL−; N America, N=1172) of the same compound?
**A.** ≤ 0.12 µg/mL

**Q.** What about the “% R (resistance)” value (E. coli ESBL+; Asia/Pac, Eucast breakpoints) of the same compound?
**A.** 0.5%

**Q.** And the MIC90 (E. coli ESBL+; Asia/Pac, N=219)?
**A.** 0.25 µg/mL (≈ 0.835 µM)

**Q.** What about the “% R (resistance)” value (E. coli ESBL+; Europe, Eucast breakpoints) of the same compound?
**A.** 0%

**Q.** And the MIC90 (E. coli ESBL+; Europe, N=274)?
**A.** 0.25 µg/mL (≈ 0.835 µM)

**Q.** What about the “% R (resistance)” value (E. coli ESBL+; L. Amer, CLSI breakpoints) of the same compound?
**A.** 0.6%

**Q.** What about the MIC90 (E. coli ESBL+; L. Amer, N=168) of the same compound?
**A.** 0.25 µg/mL (≈ 0.835 µM)

**Q.** And the “% R (resistance)” value (E. coli ESBL+; N America, CLSI breakpoints)?
**A.** 0%

**Q.** And the MIC90 (E. coli ESBL+; N America, N=134)?
**A.** 0.25 µg/mL (≈ 0.835 µM)

**Q.** And the MIC90 (E. cloacae CeftazS; Asia/Pac, N=100)?
**A.** 1 (1)

**Q.** And the “% R (resistance)” value (E. cloacae CeftazS; Europe, Eucast breakpoints)?
**A.** 0%

**Q.** What about the MIC90 (E. cloacae CeftazS; Europe, N=183) of the same compound?
**A.** 0.5 µg/mL (≈ 1.67 µM)

**Q.** And the “% R (resistance)” value (E. cloacae CeftazS; L. Amer, CLSI breakpoints)?
**A.** 0%

**Q.** What about the MIC90 (E. cloacae CeftazS; L. Amer, N=57) of the same compound?
**A.** 0.5 µg/mL (≈ 1.67 µM)

**Q.** What about the “% R (resistance)” value (E. cloacae CeftazS; N America, CLSI breakpoints) of the same compound?
**A.** 0%

**Q.** What about the MIC90 (E. cloacae CeftazS; N America, N=210) of the same compound?
**A.** 0.5 µg/mL (≈ 1.67 µM)

**Q.** Which “resistance rates for ESBL-producing clinical isolates” value (E. coli ESBL+; E. coli) does the source give for `CC(C)(O/N=C(\C(=O)N[C@@H]1C(=O)N2C(C(=O)[O-])=C(C[n+]3ccccc3)CS[C@H]12)c1csc(N)n1)C(=O)O` [ceftazidime] here?
**A.** 50%

Reference: patent US10238670B2, “9-aminomethyl minocycline compounds and methods of use thereof in urinary tract infection (UTI) treatment” (Paratek Pharmaceuticals, Inc., priority 2016, dated 2019)
